One assay has as its system HepG2 cells. Nature of the assay: Cytotoxicity against HepG2 cells (resazurin). The format is cell-based, human. The conditions noted are these: 3 days treatment, curve-fitting, two biological replicates. The protocol:
(§1) Measuring cytotoxicity against HepG2 and HEK293 cells. Cytotoxicity in human embryonic kidney (HEK293) and liver carcinoma (HepG2) cells was assayed as above using a resazurin assay. Cells were obtained from ATCC (ATCC CRL-1573 and HB-8065), passaged <10 times, and grown in Dulbecco's modification of Eagle's Medium (DMEM: Corning 10^−013-CV) supplemented with 10% FBS and 1% penicillin-streptomycin. 99 μL of cells were plated into each well of a 96-well clear flat-bottom, black polystyrene tissue-culture-treated plate at a density of ˜10+ cells/well, and plates were incubated overnight for adhesion. The day after plating. 1 μL of each compound, prepared as two-fold serial dilutions of 5 mM stock solutions in DMSO, was added to each well. Cells were incubated for 3 days, after which resazurin was added to each well to a final concentration of 0.15 mM. After an additional 1 day of incubation, the fluorescence excitation/emission at 550/590 nm was read using a SpectraMax M3 plate reader. Experiments were performed in biological duplicate. IC50 values were determined by normalizing with respect to the fluorescence intensity values of untreated control cells on day 3, as described in Calculation of cellular viability values in dose-response curves above.

Another assay concerns HEK293 cells. Nature of the assay: Cytotoxicity against HEK293 cells (resazurin). In kind it is cell-based, human. The conditions noted are these: 3 days treatment, curve-fitting, two biological replicates. Here is the method:
as §1

Another assay has as its target Mcl-1 (Homo sapiens, UniProt Q07820). Nature of the assay: Mcl-1 TR-FRET. In kind it is binding.
The target in a further assay is T1, Bcl-2 (Homo sapiens, UniProt P10415).
T1 construct: purchased BPS Bioscience 50222
Nature of the assay: BCL-2 TR-FRET, inhibition of Bcl-2 binding to a peptide ligand. The following applies: at micromolar concentrations. The protocol:
BCL-2 TR-FRET. Inhibition of Bcl-2 binding to a peptide ligand was measured using the BCL-2 TR-FRET Assay Kit from BPS Bioscience (BPS Bioscience 50222). Briefly, the provided BCL TR-FRET assay buffer was diluted 1:3 with ultrapure Milli-Q water. The anti-His terbium-labeled donor and dye-labeled acceptor were each diluted 1:100 with diluted assay buffer. The BCL-2 peptide ligand was thawed on ice and diluted 1:40 with diluted assay buffer, and BCL-2 protein was diluted with diluted assay buffer to a working concentration of 1 ng/μL. Test compounds at the indicated final concentrations were prepared as stock 10% DMSO solutions in ultrapure Milli-Q water. The reaction was performed by combining 5 μL diluted donor. 5 μL diluted acceptor. 2 μL test compound. 5 μL diluted ligand, and 3 μL diluted protein in each well of the provided white, flat-bottom 384-well plate. Positive control reactions had 2 μL 10% DMSO in water in lieu of test compound. Negative control reactions had 2 μL 10% DMSO in water and 5 μL diluted assay buffer in lieu of test compound and diluted ligand. Reactions were incubated at room temperature for 3 hours, and fluorescent intensities were measured using a SpectraMax® M5 plate reader and manufacturer software (SoftMax Pro 6) with the following TR-FRET settings; for terbium-labeled donor emission, ex/em. 340/620 nm: lag time. 100 μs: integration time. 500 μs: for dye-acceptor emission, ex/em. 340/665 nm: lag time. 100 μs; integration time. 500 μs. The TR-FRET ratio. 665 nm emission/620 nm emission, was calculated for all reactions, and percentage activity was calculated by linearly interpolating the positive and negative control TR-FRET ratio values between relative activity values of 0) and 1. Experiments were performed in biological duplicate and repeated on independent occasions.

Assay [1] concerns late-passage IMR-90 cells. As to the kind of experiment: Replicative senescence model, resazurin cell viability. The format is cell-based, human. The conditions noted are these: early- versus late-passage IMR-90 cells. The protocol: Cell culture. Human lung fibroblast (IMR-90) cells were obtained from ATCC (CCL-186) and passaged less than 10 times (less than 30 population doublings) for all experiments described in this example, with the exception of high-passage cells used in the model of replicative senescence (see the section on Replicative senescence below). Cells were cultured in growth media comprising Eagle's Minimum Essential Medium (EMEM: ATCC 30-2003) supplemented with 10% fetal bovine serum (FBS: Thermo Fisher 16140071) and 1% penicillin-streptomycin (Thermo Fisher 15070063). Cells were incubated in a humidity-controlled incubator at 37° C., with 5% CO2. Cells were detached using trypsin-EDTA (0.05%; Gibco 25300120).
Cells were then plated as described below.
Chemical screening. For all screening experiments. 99 μL of cells were plated into each well of a 96-well clear flat-bottom, black polystyrene tissue-culture-treated plate (Corning 3904) at a density of ˜10+ cells/well. Plates were incubated overnight for adhesion. The day after plating. […] After an additional 1 day of incubation, the fluorescence excitation/emission at 550/590 nm was read using a SpectraMaxR M3 plate reader and manufacturer software (SoftMax Pro R 6). […]
Calculation of cellular viability values in dose-response curves. […] For each sample, the fluorescence intensity value was normalized by the mean of two untreated control values. […]

Another assay addresses Bcl-XL (Homo sapiens, UniProt Q07817). Nature of the assay: Bcl-XL TR-FRET. In kind it is binding.
For a further assay, the target named is BRD4 (Homo sapiens, UniProt O60885). Nature of the assay: BRD4 inhibition. The format is biochemical.

T1 sequence (P10415 whole entry): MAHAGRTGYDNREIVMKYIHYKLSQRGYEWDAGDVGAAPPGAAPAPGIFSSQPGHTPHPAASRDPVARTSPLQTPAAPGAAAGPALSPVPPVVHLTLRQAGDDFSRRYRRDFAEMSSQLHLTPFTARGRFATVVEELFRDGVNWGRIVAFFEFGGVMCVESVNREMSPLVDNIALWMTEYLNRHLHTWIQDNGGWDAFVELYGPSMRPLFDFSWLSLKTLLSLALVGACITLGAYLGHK
Sequence of Mcl-1 (Q07820 whole entry, species assumed): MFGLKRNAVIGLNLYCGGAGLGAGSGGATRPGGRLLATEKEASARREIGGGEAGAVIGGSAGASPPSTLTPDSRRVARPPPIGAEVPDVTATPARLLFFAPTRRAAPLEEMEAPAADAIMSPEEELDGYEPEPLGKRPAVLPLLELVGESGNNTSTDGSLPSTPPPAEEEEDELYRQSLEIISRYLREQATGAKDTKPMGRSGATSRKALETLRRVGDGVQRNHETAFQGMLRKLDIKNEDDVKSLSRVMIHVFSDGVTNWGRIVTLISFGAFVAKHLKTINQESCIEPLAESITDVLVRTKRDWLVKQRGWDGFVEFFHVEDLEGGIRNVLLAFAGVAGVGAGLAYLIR
Sequence of Bcl-XL (Q07817 whole entry): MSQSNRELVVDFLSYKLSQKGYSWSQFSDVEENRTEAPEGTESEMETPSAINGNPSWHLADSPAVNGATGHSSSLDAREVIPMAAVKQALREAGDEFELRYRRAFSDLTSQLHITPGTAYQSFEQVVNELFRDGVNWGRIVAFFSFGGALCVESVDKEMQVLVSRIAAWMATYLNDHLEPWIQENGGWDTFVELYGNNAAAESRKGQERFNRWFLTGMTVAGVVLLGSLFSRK

Regarding `COc1ccc(C(=O)Nc2ccc3nc(SCC(=O)Nc4ccccc4F)sc3c2)cc1OC` [compound 6], the IC50 in the assay on HepG2 cells (Homo sapiens, HepG2, 72 h) was 421 µM; with HEK293 cells (Homo sapiens, HEK293, 72 h) it was 21.4 µM; against Mcl-1 it was at least 100 µM. The “inhibition of Bcl-2 binding activity to a peptide ligand” value (from here on “inhibition of Bcl-2 binding activity”) at Bcl-2 is on record as “inhibited Bcl-2”.
With `Cc1ccccc1C(=O)Nc1ccc2nc(SCC(=O)Nc3ccccc3)sc2c1` [compound 19], the IC50 with HepG2 cells (Homo sapiens, HepG2, 72 h) is 383 µM; in the assay with HEK293 cells (Homo sapiens, HEK293, 72 h), 160 µM. Also, the “inhibition of Bcl-2 binding activity” value at Bcl-2 is reported as “inhibited Bcl-2”. Moreover, in assay [1], the “selectivity against late-passage Sncs compared with ABT-737” value is on record as “less”.
Consider `O=C(Nc1ccc(S(=O)(=O)Nc2ncccn2)cc1)c1ccc(-c2ccccc2)cc1` [BRD-K20733377], for which the IC50 in the assay with HepG2 cells is 70.3 µM; on Bcl-XL it was around 1 µM; in the assay on HEK293 cells, 51.1 µM; on BRD4, around 10 µM. Moreover, on Bcl-2, the “inhibition of Bcl-2 binding activity” value is on record as “inhibited Bcl-2”. For the same compound, the “selectivity against late-passage Sncs compared with ABT-737” value in assay [1] is listed as “similarly selective”.

For the origin of these results see US20260097022A1, “COMPOUNDS AND USES THEREOF” (Integrated Biosciences, Inc., priority 2023, published 2026).
